{"source": "ChEMBL document CHEMBL5608197", "about": "“Optimization of pyrazolopyridine 4-carboxamides with potent antimalarial activity for which resistance is associated with the P. falciparum transporter ABCI3” (Eur J Med Chem, 2024)", "key": {"[1]": {"target": "T1, CYP2D6 (Homo sapiens, UniProt P10635)", "T1 sequence (P10635 whole entry)": "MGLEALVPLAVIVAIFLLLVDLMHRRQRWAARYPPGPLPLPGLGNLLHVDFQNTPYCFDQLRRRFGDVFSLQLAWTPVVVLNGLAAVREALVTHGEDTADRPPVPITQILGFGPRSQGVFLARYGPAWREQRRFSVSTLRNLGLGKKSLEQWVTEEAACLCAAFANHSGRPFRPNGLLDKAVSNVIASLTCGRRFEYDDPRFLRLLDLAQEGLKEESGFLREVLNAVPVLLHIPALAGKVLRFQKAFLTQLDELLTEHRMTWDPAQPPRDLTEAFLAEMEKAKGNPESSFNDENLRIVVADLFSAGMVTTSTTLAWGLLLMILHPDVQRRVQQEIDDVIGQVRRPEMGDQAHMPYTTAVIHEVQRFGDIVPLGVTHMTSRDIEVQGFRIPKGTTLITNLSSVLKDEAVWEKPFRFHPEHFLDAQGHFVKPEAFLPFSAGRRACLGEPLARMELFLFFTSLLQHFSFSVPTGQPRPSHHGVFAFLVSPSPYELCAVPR", "test": "Inhibition of CYP2D6 (unknown origin) at 10 uM relative to control", "format": "ADME"}, "[2]": {"tested_on": "Plasmodium falciparum", "test": "Antiplasmodial activity against ring stage of Plasmodium falciparum 3D7 expressing ABCI3-HAreg assessed as inhibition of parasite proliferation incubated for 72 hrs in absence of ABCI3 inhibitor, GlcN by SYBR dye based flow cytometry", "format": "functional, organism-based", "settings": "3D7, 72 h"}, "[3]": {"target": "T2, CYP3A4 (Homo sapiens, UniProt P08684)", "T2 sequence (P08684 whole entry)": "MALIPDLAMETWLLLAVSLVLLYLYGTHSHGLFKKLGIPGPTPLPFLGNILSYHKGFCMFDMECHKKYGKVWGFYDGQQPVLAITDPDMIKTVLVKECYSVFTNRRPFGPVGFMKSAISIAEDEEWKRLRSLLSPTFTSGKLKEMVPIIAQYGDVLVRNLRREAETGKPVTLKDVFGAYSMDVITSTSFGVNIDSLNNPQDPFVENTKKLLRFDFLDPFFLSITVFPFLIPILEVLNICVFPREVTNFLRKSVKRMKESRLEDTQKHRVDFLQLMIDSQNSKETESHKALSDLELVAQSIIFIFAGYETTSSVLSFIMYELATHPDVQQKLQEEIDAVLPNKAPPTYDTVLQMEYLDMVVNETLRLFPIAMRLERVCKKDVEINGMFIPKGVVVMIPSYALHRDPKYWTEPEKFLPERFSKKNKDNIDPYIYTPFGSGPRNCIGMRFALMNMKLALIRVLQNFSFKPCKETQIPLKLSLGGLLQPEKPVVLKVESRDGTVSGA", "test": "Inhibition of CYP3A4 (unknown origin) at 1 uM relative to control", "format": "ADME"}, "[4]": {"tested_on": "Plasmodium falciparum", "test": "Antiplasmodial activity against multidrug-resistant Plasmodium falciparum 7G8 infected in erythrocytes assessed as inhibition of parasite growth incubated for 72 hrs by [3H]hypoxanthine incorporation based microbeta counting analysis", "format": "functional, organism-based", "settings": "7G8, Erythrocyte"}, "[5]": {"tested_on": "Plasmodium falciparum", "test": "Antiplasmodial activity against multidrug-resistant Plasmodium falciparum Dd2 harboring cyt b-I22L mutant infected in erythrocytes assessed as inhibition of parasite growth incubated for 72 hrs by [3H]hypoxanthine incorporation based microbeta counting analysis", "format": "functional, organism-based", "settings": "Dd2, Erythrocyte"}, "[6]": {"test": "Cytotoxicity against human HepG2 cells assessed as inhibition of cell growth incubated for 48 hrs by CellTiter-Glo luminescence assay", "format": "toxicity, cell-based"}, "[7]": {"tested_on": "Plasmodium falciparum", "test": "Antimalarial activity against asexual stage of Plasmodium falciparum 3D7 infected in erythrocytes assessed as lag phase of parasite growth at 10XEC50 incubated for 24 hrs followed by drug removal and incubation for 48 hrs with CFDA-SE labelled fresh erythrocytes by Hoechst 33342 staining based two-color flow cytometry", "format": "functional, organism-based", "settings": "Erythrocyte"}, "[8]": {"tested_on": "Plasmodium falciparum", "test": "Antiplasmodial activity against ring stage of Plasmodium falciparum 3D7 expressing ABCI3-HAreg assessed as inhibition of parasite proliferation incubated for 72 hrs in presence of ABCI3 inhibitor, GlcN by SYBR dye based flow cytometry", "format": "functional, organism-based", "settings": "3D7, 72 h"}, "[9]": {"target": "CYP2C19 (Homo sapiens, UniProt P33261)", "sequence (P33261 whole entry)": "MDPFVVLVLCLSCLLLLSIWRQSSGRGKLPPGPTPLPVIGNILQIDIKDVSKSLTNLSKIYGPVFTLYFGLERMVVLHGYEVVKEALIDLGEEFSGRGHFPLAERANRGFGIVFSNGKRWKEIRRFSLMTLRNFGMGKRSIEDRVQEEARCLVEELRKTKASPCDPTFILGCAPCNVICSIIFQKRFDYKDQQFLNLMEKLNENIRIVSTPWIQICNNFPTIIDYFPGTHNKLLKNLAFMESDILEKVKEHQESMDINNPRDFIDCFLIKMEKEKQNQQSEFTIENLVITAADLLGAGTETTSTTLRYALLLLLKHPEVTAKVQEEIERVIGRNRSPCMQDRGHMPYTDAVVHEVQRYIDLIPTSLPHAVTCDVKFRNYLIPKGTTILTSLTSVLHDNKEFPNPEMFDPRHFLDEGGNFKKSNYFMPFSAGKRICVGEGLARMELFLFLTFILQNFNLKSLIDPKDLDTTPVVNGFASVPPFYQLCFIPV", "test": "Inhibition of CYP2C19 (unknown origin) at 1 uM relative to control", "format": "ADME"}, "[10]": {"target": "Voltage-gated inwardly rectifying potassium channel KCNH2 (Homo sapiens, UniProt Q12809)", "sequence (Q12809 whole entry)": "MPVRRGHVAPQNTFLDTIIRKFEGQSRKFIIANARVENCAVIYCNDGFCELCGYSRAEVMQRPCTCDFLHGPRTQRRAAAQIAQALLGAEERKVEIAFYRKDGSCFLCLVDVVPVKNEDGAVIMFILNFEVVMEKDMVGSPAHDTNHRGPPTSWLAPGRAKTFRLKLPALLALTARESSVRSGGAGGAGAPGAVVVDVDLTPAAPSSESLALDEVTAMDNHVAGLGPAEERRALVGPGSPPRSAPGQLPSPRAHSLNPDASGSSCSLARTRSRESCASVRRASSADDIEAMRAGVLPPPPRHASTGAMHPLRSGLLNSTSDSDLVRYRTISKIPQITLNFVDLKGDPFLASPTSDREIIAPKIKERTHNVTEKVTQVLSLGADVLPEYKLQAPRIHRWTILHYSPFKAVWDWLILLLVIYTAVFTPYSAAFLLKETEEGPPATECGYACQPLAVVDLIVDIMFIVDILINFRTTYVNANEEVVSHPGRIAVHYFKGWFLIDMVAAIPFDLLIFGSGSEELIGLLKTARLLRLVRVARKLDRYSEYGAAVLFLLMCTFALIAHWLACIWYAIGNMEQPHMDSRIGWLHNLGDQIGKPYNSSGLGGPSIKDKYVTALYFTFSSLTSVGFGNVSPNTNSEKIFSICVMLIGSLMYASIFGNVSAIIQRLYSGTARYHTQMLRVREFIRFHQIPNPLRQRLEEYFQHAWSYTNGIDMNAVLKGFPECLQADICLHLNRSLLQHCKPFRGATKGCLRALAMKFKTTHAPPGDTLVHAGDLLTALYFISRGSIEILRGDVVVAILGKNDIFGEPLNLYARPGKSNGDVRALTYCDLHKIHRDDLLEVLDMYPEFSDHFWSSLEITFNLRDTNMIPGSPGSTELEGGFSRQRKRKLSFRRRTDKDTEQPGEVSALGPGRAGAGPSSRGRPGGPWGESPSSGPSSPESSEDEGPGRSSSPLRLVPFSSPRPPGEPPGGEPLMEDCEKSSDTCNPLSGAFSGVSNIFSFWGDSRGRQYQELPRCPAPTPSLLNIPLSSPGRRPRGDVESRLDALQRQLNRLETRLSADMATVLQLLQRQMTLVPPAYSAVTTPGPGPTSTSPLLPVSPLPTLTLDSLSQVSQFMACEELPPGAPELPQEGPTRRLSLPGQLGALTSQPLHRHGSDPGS", "test": "Inhibition of hERG expressed in CHO cells by patch clamp method", "format": "toxicity, cell-based"}, "[11]": {"test": "Ratio of EC50 for antiplasmodial activity against ring stage of Plasmodium falciparum 3D7 expressing ABCI3-HAreg in absence of ABCI3 inhibitor, GlcN to EC50 for antiplasmodial activity against ring stage of Plasmodium falciparum 3D7 expressing ABCI3-HAreg in presence of ABCI3 inhibitor, GlcN", "format": "functional"}, "[12]": {"tested_on": "Plasmodium falciparum", "test": "(§1) Resistance ratio of EC50 for antiplasmodial activity against drug-resistant recrudescent Plasmodium falciparum Dd2-B2 in 2x10^5 to 2x10^6 bulk culture selection measured on day 15 under initial selection drug pressure concentration of 3XEC50 to EC50 for antiplasmodial activity against Plasmodium flaciparum Dd2-B2 measured after 72 hrs", "format": "functional"}, "[13]": {"target": "T3, CYP1A2 (Homo sapiens, UniProt P05177)", "T3 sequence (P05177 whole entry)": "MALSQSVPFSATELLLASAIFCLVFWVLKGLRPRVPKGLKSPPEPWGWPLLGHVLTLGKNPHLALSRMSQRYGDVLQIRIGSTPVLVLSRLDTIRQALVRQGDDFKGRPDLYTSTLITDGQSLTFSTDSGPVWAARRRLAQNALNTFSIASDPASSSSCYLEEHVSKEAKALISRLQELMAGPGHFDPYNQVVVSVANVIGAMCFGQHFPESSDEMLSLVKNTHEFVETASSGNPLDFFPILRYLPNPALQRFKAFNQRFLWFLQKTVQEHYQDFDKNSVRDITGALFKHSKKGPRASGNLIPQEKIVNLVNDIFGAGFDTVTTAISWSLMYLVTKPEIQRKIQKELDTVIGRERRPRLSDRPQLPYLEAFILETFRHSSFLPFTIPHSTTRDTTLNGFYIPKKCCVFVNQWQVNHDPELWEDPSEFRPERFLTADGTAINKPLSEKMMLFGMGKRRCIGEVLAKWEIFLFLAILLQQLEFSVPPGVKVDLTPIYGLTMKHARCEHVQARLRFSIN", "test": "Inhibition of CYP1A2 (unknown origin) at 10 uM relative to control", "format": "ADME"}, "[14]": {"target": "T2, CYP3A4", "test": "Inhibition of CYP3A4 (unknown origin) at 10 uM relative to control", "format": "ADME"}, "[15]": {"tested_on": "Plasmodium falciparum", "test": "Antiplasmodial activity against multidrig-resistant Plasmodium falciparum Dd2 harboring eEF2Y-I86N mutant infected in erythrocytes assessed as inhibition of parasite growth incubated for 72 hrs by [3H]hypoxanthine incorporation based microbeta counting analysis", "format": "functional, organism-based", "settings": "Dd2, Erythrocyte"}, "[16]": {"tested_on": "Plasmodium falciparum", "test": "Antimalarial activity against asexual stage of Plasmodium falciparum 3D7 infected in erythrocytes assessed as parasite killing at 10XEC50 incubated for 48 hrs with compound renewal for every 24 hrs followed by drug removal and incubation for 48 hrs with CFDA-SE labelled fresh erythrocytes by Hoechst 33342 staining based two-color flow cytometry", "format": "functional, organism-based", "settings": "Erythrocyte"}, "[17]": {"target": "T1, CYP2D6", "test": "Inhibition of CYP2D6 (unknown origin) at 1 uM relative to control", "format": "ADME"}, "[18]": {"tested_on": "Plasmodium falciparum", "test": "as §1, with “of EC90” for “of EC50”, “to EC90” for “to EC50”, “flaciparum Dd2” for “flaciparum Dd2-B2”", "format": "functional"}, "[19]": {"tested_on": "Plasmodium falciparum", "test": "Antiplasmodial activity against multidrug-resistant Plasmodium falciparum Dd2 harboring PI4K-S743F mutant infected in erythrocytes assessed as inhibition of parasite growth incubated for 72 hrs by [3H]hypoxanthine incorporation based microbeta counting analysis", "format": "functional, organism-based", "settings": "Dd2, Erythrocyte"}, "[20]": {"tested_on": "Plasmodium falciparum", "test": "Antiplasmodial activity against asexual blood stage of Plasmodium falciparum 3D7 assessed as inhibition of parasite growth incubated for 72 hrs by LDH assay", "format": "functional, organism-based", "settings": "3D7, 72 h"}, "[21]": {"tested_on": "Plasmodium falciparum", "test": "Antiplasmodial activity against drug-resistant Plasmodium falciparum Dd2-B2 in 2x10^5 bulk culture selection assessed as concentration required to complete parasite killing measured on day 5 under initial selection drug pressure concentration of 3XEC50 by Minimum inoculum of resistance analysis", "format": "functional", "settings": "time 5 day"}, "[22]": {"test": "Efflux ratio of permeability across basolateral to apical side over apical to basolateral side in human Caco-2 cells at pH 7.4", "format": "ADME, cell-based", "settings": "Caco-2, pH 7.4"}, "[23]": {"tested_on": "Plasmodium falciparum", "test": "Antiplasmodial activity against multidrug-resistant Plasmodium falciparum K1 infected in erythrocytes assessed as inhibition of parasite growth incubated for 72 hrs by [3H]hypoxanthine incorporation based microbeta counting analysis", "format": "functional, organism-based", "settings": "K1, Erythrocyte"}, "[24]": {"tested_on": "Plasmodium falciparum", "test": "Antiplasmodial activity against drug-resistant recrudescent Plasmodium falciparum Dd2-B2 in 2x10^7 bulk culture selection assessed as inhibition of parasite growth incubated for 72 hrs by flow cytometry", "format": "functional, organism-based"}, "[25]": {"tested_on": "Plasmodium falciparum", "test": "Antiplasmodial activity against drug-resistant Plasmodium falciparum Dd2-B2 bulk cultures assessed as minimum inoculum of resistance measured under initial selection drug pressure concentration of 3XEC50 by MIR analysis", "format": "functional"}, "[26]": {"tested_on": "Plasmodium falciparum", "test": "as §1, with “of EC90” for “of EC50”, “in 2x10^7” for “in 2x10^5 to 2x10^6”, “to EC90” for “to EC50”, “flaciparum Dd2” for “flaciparum Dd2-B2”", "format": "functional"}, "[27]": {"tested_on": "Plasmodium falciparum", "test": "Antiplasmodial activity against Plasmodium falciparum Dd2 infected in erythrocytes assessed as inhibition of parasite growth incubated for 72 hrs by [3H]hypoxanthine incorporation based microbeta counting analysis", "format": "functional, organism-based", "settings": "Dd2, Erythrocyte"}, "[28]": {"test": "Permeability of the compound across apical to basolateral side in human Caco-2 cells at pH 7.4", "format": "ADME, cell-based", "settings": "Caco-2, pH 7.4, read-out: permeability"}, "[29]": {"test": "Permeability of the compound across basolateral to apical side in human Caco-2 cells at pH 7.4", "format": "ADME, cell-based", "settings": "Caco-2, pH 7.4, read-out: permeability"}, "[30]": {"tested_on": "Plasmodium falciparum", "test": "Antiplasmodial activity against multidrug-resistant Plasmodium falciparum Dd2 harboring CARL-I1139K mutant infected in erythrocytes assessed as inhibition of parasite growth incubated for 72 hrs by [3H]hypoxanthine incorporation based microbeta counting analysis", "format": "functional, organism-based", "settings": "Dd2, Erythrocyte"}}, "note": "Calls of active or inactive are those of the source. The calls are words filed in the database; no cut-off is given here.", "data": [{"smiles": "Cc1nn(C(C)(C)C)c2nc(C3CC3)cc(C(=O)N3CCOc4ccncc43)c12", "values": [{"measurement": "inhibition at 10 µM", "setting": "[1]", "result": 86.4, "unit": "%"}, {"measurement": "EC50", "setting": "[2]", "result": 2.7, "unit": "nM"}, {"measurement": "inhibition at 1 µM", "setting": "[3]", "result": 66.2, "unit": "%"}, {"measurement": "EC50", "setting": "[4]", "result": 8, "unit": "nM"}, {"measurement": "EC50", "setting": "[5]", "result": 6, "unit": "nM"}, {"measurement": "CC50 at 48 h", "setting": "[6]", "result": 4810, "unit": "nM"}, {"measurement": "Activity", "setting": "[7]", "result": "Active"}, {"measurement": "EC50", "setting": "[8]", "result": 0.8, "unit": "nM"}, {"measurement": "inhibition at 1 µM", "setting": "[9]", "result": 3.6, "unit": "%"}, {"measurement": "EC50", "setting": "[10]", "result": 16700, "unit": "nM"}, {"measurement": "Ratio EC50", "setting": "[11]", "result": 3.4}, {"measurement": "Ratio EC50", "setting": "[12]", "result": 3}, {"measurement": "inhibition at 10 µM", "setting": "[13]", "result": 55.1, "unit": "%"}, {"measurement": "inhibition at 10 µM", "setting": "[14]", "result": 90.5, "unit": "%"}, {"measurement": "EC50", "setting": "[15]", "result": 7, "unit": "nM"}, {"measurement": "Activity", "setting": "[16]", "result": "Active"}, {"measurement": "inhibition at 1 µM", "setting": "[17]", "result": 43.8, "unit": "%"}, {"measurement": "Ratio", "setting": "[18]", "result": 5}, {"measurement": "EC50", "setting": "[19]", "result": 6, "unit": "nM"}, {"measurement": "EC50", "setting": "[20]", "result": 16, "unit": "nM"}, {"measurement": "Activity", "setting": "[21]", "result": 28, "unit": "nM"}, {"measurement": "efflux ratio", "setting": "[22]", "result": 1.4}, {"measurement": "EC50", "setting": "[23]", "result": 9, "unit": "nM"}, {"measurement": "EC50", "setting": "[24]; Dd2-B2, 72 h", "result": 37.5, "unit": "nM"}, {"measurement": "EC90", "setting": "[24]; Dd2-B2, time 72 hrs", "result": 68.9, "unit": "nM"}, {"measurement": "Activity", "setting": "[25]", "result": "1.6 10^6No_unit"}, {"measurement": "Ratio", "setting": "[26]", "result": 5}, {"measurement": "EC50", "setting": "[27]", "result": 4, "unit": "nM"}, {"measurement": "Papp A→B", "setting": "[28]", "result": 17.1, "unit": "×10⁻⁶ cm/s"}, {"measurement": "Papp B→A", "setting": "[29]", "result": 23.7, "unit": "×10⁻⁶ cm/s"}, {"measurement": "EC50", "setting": "[30]", "result": 5, "unit": "nM"}]}]}
